Reference: patent publication US20250332173A1, “COMPOUNDS AND METHODS FOR MODULATING NUCLEIC ACID SPLICING” (REMIX THERAPEUTICS INC., priority 2021, published 2025)
Where a name gives a salt, the structure may show the parent alone. Read-outs that look alike come from different tables or passages of the source.

Columns and labels:
[1] = system: K562 (human chronic myelogenous leukemia) cells; experiment: Cell Titer Glo 2.0 cell viability assay; format: cell-based; conditions: Homo sapiens, K562, 72 h, K562 cells, 72 hours, Cell Titer Glo 2.0; read-out: K562 GI50
HTT mRNA = experiment: RT-qPCR splicing assay, HTT canonical junction (CJ) and alternative junction (AJ) mRNA; format: cell-based, human; conditions: Homo sapiens; for AC50: increase in HTT alternative junction (AJ) mRNA, read-out: HTT AJ AC50
How it was run: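 A673 or K562 cells were treated for 24 h at 37 °C with an 11-point 3-fold compound dilution series (top final concentration 10 uM, DMSO ≤0.25%). After lysis, one-step TaqMan RT-qPCR quantified junction transcripts, normalized to PPIA for A673 or to GAPDH/GUSB for K562.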

SMN2 mRNA = experiment: RT-qPCR splicing assay, SMN2 canonical junction (CJ) mRNA; format: cell-based, human; conditions: Homo sapiens; Table 5 panel; canonical junction qPCR; compound concentration having 50% response in CJ decrease; read-out: SMN2 IC50 (decrease in CJ mRNA levels)
How it was run: (§1)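 Read-out is canonical exon-exon junction mRNA quantified by RT-qPCR against a GAPDH, GUSB or PPIA control. Cells (A673 or K562) received compound for 24 h, top final dose 10 uM in an 11-point 3-fold series.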

Target C = experiment: RT-qPCR splicing assay panel, Target C canonical junction (CJ) mRNA; format: cell-based, human; conditions: Homo sapiens; Table 5 panel; canonical junction qPCR; compound concentration having 50% response in CJ decrease; read-out: Target C IC50 (decrease in CJ mRNA levels)
How it was run: as §1

[2] = decrease in HTT canonical junction (CJ) mRNA, RT-qPCR, read-out: HTT CJ IC50
[3] = Table 5 panel, canonical junction qPCR, compound concentration having 50% response in CJ decrease, read-out: HTT IC50 (decrease in CJ mRNA levels)

Cc1cn2nc(-c3ccc4c(=O)n(C5CCNCC5)ccc4c3)cc(Oc3ccc(F)cc3)c2n1 [Compound 546, 6-[8-(4-fluorophenoxy)-2-methyl-imidazo[1,2-b]pyridazin-6-yl]-2-(4-piperidyl) isoquinolin-1-one; hydrochloride]
GI50 [1]: < 0.1 µM
IC50 (HTT mRNA; [2]): < 0.1 µM
AC50 (HTT mRNA; RT-qPCR): < 0.1 µM
IC50 (HTT mRNA; [3]): < 0.1 µM
IC50 (SMN2 mRNA): < 0.1 µM
IC50 (Target C): < 0.1 µM

COc1cccc(Oc2cc(-c3ccc4c(=O)n(C5CCNCC5)ccc4c3)nn3cc(C)nc23)c1 [Compound 547, 6-[8-(3-methoxyphenoxy)-2-methyl-imidazo[1,2-b]pyridazin-6-yl]-2-(4 piperidyl) isoquinolin-1-one]
GI50 [1]: < 0.1 µM
IC50 (HTT mRNA; [2]): < 0.1 µM
AC50 (HTT mRNA; RT-qPCR): < 0.1 µM
IC50 (HTT mRNA; [3]): < 0.1 µM
IC50 (SMN2 mRNA): < 0.1 µM
IC50 (Target C): < 0.1 µM

Cc1cn2nc(-c3cc(F)c4c(=O)n(C5CCNCC5)ncc4c3)cc(Oc3ccccc3)c2n1 [Compound 548, 8-fluoro-6-(2-methyl-8-phenoxy-imidazo[1,2-b]pyridazin-6-yl)-2-(4-piperidyl)phthala-zin-1-one]
GI50 [1]: < 0.1 µM
IC50 (HTT mRNA; [2]): < 0.1 µM
AC50 (HTT mRNA; RT-qPCR): < 0.1 µM
IC50 (HTT mRNA; [3]): < 0.1 µM
IC50 (SMN2 mRNA): < 0.1 µM
IC50 (Target C): < 0.1 µM

Cc1cn2nc(-c3ccc4c(=O)n(C5CCNCC5)ncc4c3)cc(Oc3ccccc3)c2n1 [Compound 549, 6-(2-methyl-8-phenoxy-imidazo[1,2-b]pyridazin-6-yl)-2-(4-piperidyl) phthalazin-1-one]
GI50 [1]: 0.1 to 1 µM
IC50 (HTT mRNA; [2]): < 0.1 µM
AC50 (HTT mRNA; RT-qPCR): < 0.1 µM
IC50 (HTT mRNA; [3]): < 0.1 µM
IC50 (SMN2 mRNA): < 0.1 µM
IC50 (Target C): 0.1 to 1 µM

Cc1cn2nc(-c3ccc4c(=O)n(C5CCNCC5)ccc4c3)cc(Oc3cccnc3)c2n1 [Compound 550, 6-[2-methyl-8-(3-pyridyloxy)imidazo[1,2-b]pyridazin-6-yl]-2-(4-piperidyl)isoquinolin-1-one]
GI50 [1]: < 0.1 µM
IC50 (HTT mRNA; [2]): < 0.1 µM
AC50 (HTT mRNA; RT-qPCR): < 0.1 µM
IC50 (HTT mRNA; [3]): < 0.1 µM
IC50 (SMN2 mRNA): < 0.1 µM
IC50 (Target C): < 0.1 µM

Cc1cn2nc(-c3ccc4c(=O)n(C5CCNCC5)ccc4c3)cc(-n3ccc(=O)cc3)c2n1 [Compound 551, 6-[2-methyl-8-(4-oxo-1-pyridyl)imidazo[1,2-b]pyridazin-6-yl]-2-(4-piperidyl)isoquinolin-1-one]
GI50 [1]: 0.1 to 1 µM
IC50 (HTT mRNA; [2]): 0.1 to 1 µM
AC50 (HTT mRNA; RT-qPCR): 0.1 to 1 µM
IC50 (HTT mRNA; [3]): 0.1 to 1 µM
IC50 (SMN2 mRNA): 0.1 to 1 µM
IC50 (Target C): 0.1 to 1 µM

Cc1cn2nc(-c3ccc4c(=O)n(C5CCNCC5)ccc4c3)cc(-n3ccccc3=O)c2n1 [Compound 552, 6-[2-methyl-8-(2-oxo-1-pyridyl)imidazo[1,2-b]pyridazin-6-yl]-2-(4-piperidyl)isoquinolin-1-one]
GI50 [1]: > 10 µM
IC50 (HTT mRNA; [2]): > 10 µM
AC50 (HTT mRNA; RT-qPCR): > 10 µM
IC50 (HTT mRNA; [3]): > 10 µM
IC50 (SMN2 mRNA): > 10 µM
IC50 (Target C): > 10 µM

Cc1cn2nc(-c3cc(O)c4c(=O)n(C5CCN(CCF)CC5)ncc4c3)cc(C)c2n1 [Compound 553]
GI50 [1]: 0.1 to 1 µM
IC50 (HTT mRNA; [2]): < 0.1 µM
AC50 (HTT mRNA; RT-qPCR): < 0.1 µM
IC50 (HTT mRNA; [3]): < 0.1 µM
IC50 (SMN2 mRNA): < 0.1 µM
IC50 (Target C): 0.1 to 1 µM

Cc1cc(-c2cc(F)c3c(=O)n(C4CCNC5(CC5)C4)ncc3c2)cc2cn(C)nc12 (stereo not drawn) [Compound 554]
GI50 [1]: 0.1 to 1 µM
IC50 (HTT mRNA; [2]): 0.1 to 1 µM
AC50 (HTT mRNA; RT-qPCR): 0.1 to 1 µM
IC50 (HTT mRNA; [3]): 0.1 to 1 µM
IC50 (SMN2 mRNA): < 0.1 µM
IC50 (Target C): 0.1 to 1 µM

Cc1nc2c(C)cc(-c3cc(F)c4c(=O)n(C5CCNC6(CC6)C5)ncc4c3)cc2o1 (stereo not drawn) [Compound 555]
GI50 [1]: 0.1 to 1 µM
IC50 (HTT mRNA; [2]): < 0.1 µM
AC50 (HTT mRNA; RT-qPCR): < 0.1 µM
IC50 (HTT mRNA; [3]): < 0.1 µM
IC50 (SMN2 mRNA): < 0.1 µM
IC50 (Target C): 0.1 to 1 µM

Cc1cn2cc(-c3cc(F)c4c(=O)n(C5CCNC6(CC6)C5)ncc4c3)cc(Cl)c2n1 (stereo not drawn) [Compound 556]
GI50 [1]: 0.1 to 1 µM
IC50 (HTT mRNA; [2]): 0.1 to 1 µM
AC50 (HTT mRNA; RT-qPCR): 0.1 to 1 µM
IC50 (HTT mRNA; [3]): 0.1 to 1 µM
IC50 (SMN2 mRNA): < 0.1 µM
IC50 (Target C): 1 to 10 µM

Cc1cn2cc(-c3cc(O)c4c(=O)n(C5CCNC6(CC6)C5)ncc4c3)cc(Cl)c2n1 (stereo not drawn) [Compound 557]
GI50 [1]: 0.1 to 1 µM
IC50 (HTT mRNA; [2]): 0.1 to 1 µM
AC50 (HTT mRNA; RT-qPCR): 0.1 to 1 µM
IC50 (HTT mRNA; [3]): 0.1 to 1 µM
IC50 (SMN2 mRNA): < 0.1 µM
IC50 (Target C): 1 to 10 µM

CCc1cn(C2CCNCC2)c(=O)c2c(F)cc(-c3cc(F)c4nc(C)cn4c3)cc12 [Compound 558, 4-ethyl-8-fluoro-6-{8-fluoro-2-methylimidazo[1,2-a]pyridin-6-yl}-2-(piperidin-4-yl)isoquinolin-1-one]
GI50 [1]: 0.1 to 1 µM
IC50 (HTT mRNA; [2]): 1 to 10 µM
AC50 (HTT mRNA; RT-qPCR): 1 to 10 µM
IC50 (HTT mRNA; [3]): 1 to 10 µM
IC50 (SMN2 mRNA): < 0.1 µM
IC50 (Target C): 1 to 10 µM

C=Cc1cn(C2CCNCC2)c(=O)c2c(F)cc(-c3cc(F)c4nc(C)cn4c3)cc12 [Compound 559, 4-ethenyl-8-fluoro-6-{8-fluoro-2-methylimidazo[1,2-a]pyridin-6-yl}-2-(piperidin-4-yl)isoquinolin-1-one]
GI50 [1]: < 0.1 µM
IC50 (HTT mRNA; [2]): 0.1 to 1 µM
AC50 (HTT mRNA; RT-qPCR): < 0.1 µM
IC50 (HTT mRNA; [3]): < 0.1 µM
IC50 (SMN2 mRNA): < 0.1 µM
IC50 (Target C): 0.1 to 1 µM

Cc1cn2cc(-c3ccc4c(=O)n(C5CCNCC5)ccc4c3)cc(C#N)c2n1 [Compound 560, 2-methyl-6-[1-oxo-2-(piperidin-4-yl)isoquinolin-6-yl]imidazo[1,2-a]pyridine-8-carbonitrile]
GI50 [1]: 0.1 to 1 µM
IC50 (HTT mRNA; [2]): 1 to 10 µM
AC50 (HTT mRNA; RT-qPCR): 0.1 to 1 µM
IC50 (HTT mRNA; [3]): 0.1 to 1 µM
IC50 (SMN2 mRNA): < 0.1 µM
IC50 (Target C): 1 to 10 µM

Cc1cc(-c2cc(O)c3c(=O)n(C4CCNC5(CC5)C4)ncc3c2)cc2cn(C)nc12 (stereo not drawn) [Compound 561]
GI50 [1]: 1 to 10 µM
IC50 (HTT mRNA; [2]): 0.1 to 1 µM
AC50 (HTT mRNA; RT-qPCR): 0.1 to 1 µM
IC50 (HTT mRNA; [3]): 0.1 to 1 µM
IC50 (SMN2 mRNA): 0.1 to 1 µM
IC50 (Target C): 1 to 10 µM

Cc1cn2nc(-c3cc4ncn(C5CCNCC5)c(=O)c4cc3F)cc(C)c2n1 [Compound 585, 7-{2,8-dimethylimidazo[1,2-b]pyridazin-6-yl}-6-fluoro-3-(piperidin-4-yl)quinazolin-4-one]
GI50 [1]: 1 to 10 µM
IC50 (HTT mRNA; [2]): 1 to 10 µM
AC50 (HTT mRNA; RT-qPCR): 1 to 10 µM
IC50 (HTT mRNA; [3]): 1 to 10 µM
IC50 (SMN2 mRNA): 0.1 to 1 µM
IC50 (Target C): 1 to 10 µM

Cc1cn2cc(-c3cc4ncn(C5CCNCC5)c(=O)c4cc3F)cc(F)c2n1 [Compound 586, 6-fluoro-7-{8-fluoro-2-methylimidazo[1,2-a]pyridin-6-yl}-3-(piperidin-4-yl)quinazolin-4-one]
GI50 [1]: 0.1 to 1 µM
IC50 (HTT mRNA; [2]): 1 to 10 µM
AC50 (HTT mRNA; RT-qPCR): 0.1 to 1 µM
IC50 (HTT mRNA; [3]): 0.1 to 1 µM
IC50 (SMN2 mRNA): < 0.1 µM
IC50 (Target C): 1 to 10 µM

Cc1cn2cc(-c3cc(O)c4c(=O)n(C5CCNCC5)cnc4c3)cc(F)c2n1 [Compound 587, 7-{8-fluoro-2-methylimidazo[1,2-a]pyridin-6-yl}-5-hydroxy-3-(piperidin-4-yl)quinazolin-4-one]
GI50 [1]: 0.1 to 1 µM
IC50 (HTT mRNA; [2]): 0.1 to 1 µM
AC50 (HTT mRNA; RT-qPCR): 0.1 to 1 µM
IC50 (HTT mRNA; [3]): 0.1 to 1 µM
IC50 (SMN2 mRNA): < 0.1 µM
IC50 (Target C): 0.1 to 1 µM

Cc1cn2cc(-c3cc(F)c4c(=O)n(C5CCNCC5)cnc4c3)cc(C#N)c2n1 [Compound 588]
GI50 [1]: 1 to 10 µM
IC50 (HTT mRNA; [2]): 1 to 10 µM
AC50 (HTT mRNA; RT-qPCR): 1 to 10 µM
IC50 (HTT mRNA; [3]): 1 to 10 µM
IC50 (SMN2 mRNA): < 0.1 µM
IC50 (Target C): 0.1 to 1 µM

Cc1cn2nc(-c3cc(F)c4c(=O)n(C5CCNC5)cnc4c3)cc(C)c2n1 (stereo not drawn) [Compound 589, 7-{2,8-dimethylimidazo[1,2-b]pyridazin-6-yl}-5-fluoro-3-(pyrrolidin-3-yl)quinazolin-4-one]
GI50 [1]: 1 to 10 µM
IC50 (HTT mRNA; [2]): > 10 µM
AC50 (HTT mRNA; RT-qPCR): > 10 µM
IC50 (HTT mRNA; [3]): > 10 µM
IC50 (SMN2 mRNA): 0.1 to 1 µM
IC50 (Target C): > 10 µM
